From US20250092043A1, “Kinase Inhibitors and Degraders” (Incyte Corporation, priority 2023, published 2025)

Target: T1, JAK2 (Homo sapiens, UniProt O60674, V617F)
T1 construct: their effect on JAK2 protein degradation in SET2 cells; host or cells: SET2 cells (human essential thrombocythemia)
Test: Western blot quantitation of JAK2 degradation in SET2 cells
Type: cell-based
Details: 0.5 μM compound (cells marked **), 8 hours treatment, western blot densitometry vs. DMSO vehicle
Procedure: Example E. Western Blot Analysis of JAK2 Dependent SET2 Cells Treated with Compounds of the Present Disclosure
SET2 cells (DSMZ, catalog number ACC 608) are isolated from a person with human essential thrombocythemia and carry the JAK2 V617F mutation.
SET2 cells were cultured in RPMI culture medium (Gibco, catalog number 11875085) supplemented with 1% penicillin-streptomycin-glutamine (Thermo Fisher Scientific, catalog number 10378016) and 20% fetal bovine serum (Gibco, catalog number 10438034). Cultured cells were maintained at 37° C., 5% CO2 in the incubator.
Approximately 1,000,000 cells/well were added in 6-well plate containing 1.5 ml culture media with specified concentrations of compounds of the present disclosure or DMSO control. Cells were treated with concentrations of 10 uM, 5 uM, 1 uM, and 0.5 uM. Proteasome inhibitor MG-132 (Cell signaling, catalog number 2194) was added at 20 uM to an additional 10 uM compound treatment. The treatment period was 8 hours. After 8 hours, cells were collected in 1.5 mL microcentrifuge tubes. Tubes were centrifuged at 1500 rpm for 5 min. Supernatant was aspirated and samples were washed with 1 mL of cold PBS. The samples were centrifuged again at 1500 rpm for 5 min, supernatant was aspirated. The sample pellets were lysed using 150 μL of 1× lysing buffer (Cell Signaling Technologies—catalog number 9803S) supplemented with 1× Halt™ Protease and Phosphatase Inhibitor Cocktail (Thermo Fisher Scientific—catalog number 78447). Using Pierce™ BCA Protein Assay Kit (Thermo Fisher Scientific—catalog number 23225), protein concentration of the samples were quantitated. After normalizing sample concentration to approximately 20 ug/well, samples were loaded onto 4-12% Tris-glycine gels. Gels were transferred to nitrocellulose membranes using iBlot 2 Dry Blotting System and iBlot™ 2 Transfer Stacks, nitrocellulose (Thermo Fisher Scientific—catalog number IB23001). Following transfer, membranes were blocked with StartingBlock (Thermo Fisher Scientific—catalog number 37543). After 1 hour of blocking membranes, they were probed for JAK2, pSTAT5, STAT5, CRBN, and GAPDH (Cell Signaling—catalog numbers 3230, 4322, 25656, 71810, and 5174 respectively).
Compounds of the present disclosure were screened at various concentrations to determine their effect on JAK2 protein degradation in SET2 cells, using methods as described above. DMSO was used as the vehicle control with no PROTAC® added. Co-administration of 20 μM of the proteasome inhibitor MG-132 with the PROTAC® compound at its highest concentration (i.e., 5 or 10 μM) tested was conducted to support the hypothesis that the degradation was driven by the ubiquitin-proteosome system (UPS). Degradation was evaluated by western blot densitometry quantitation using the FluorChem M instrument software to analyze the intensity of the JAK2 band signal at various concentrations of PROTAC® compound vs. the JAK2 band signal of the DMSO vehicle. It is noted that ˜82% of JAK2 exists as the V617F mutant, with the remaining 18% of JAK2 being WT. Therefore, if the V617F mutant JAK2 is selectively degraded over the WT, the maximum degradation is ˜80%. Degradation was graded as A: […]; B: ≥40% to <60% degradation; C: ≥20% to <40% degradation, D: <20% to ≥10%; E<10%. ** refers to degradation at 0.5 μM.

T1 sequence (O60674 whole entry V617F): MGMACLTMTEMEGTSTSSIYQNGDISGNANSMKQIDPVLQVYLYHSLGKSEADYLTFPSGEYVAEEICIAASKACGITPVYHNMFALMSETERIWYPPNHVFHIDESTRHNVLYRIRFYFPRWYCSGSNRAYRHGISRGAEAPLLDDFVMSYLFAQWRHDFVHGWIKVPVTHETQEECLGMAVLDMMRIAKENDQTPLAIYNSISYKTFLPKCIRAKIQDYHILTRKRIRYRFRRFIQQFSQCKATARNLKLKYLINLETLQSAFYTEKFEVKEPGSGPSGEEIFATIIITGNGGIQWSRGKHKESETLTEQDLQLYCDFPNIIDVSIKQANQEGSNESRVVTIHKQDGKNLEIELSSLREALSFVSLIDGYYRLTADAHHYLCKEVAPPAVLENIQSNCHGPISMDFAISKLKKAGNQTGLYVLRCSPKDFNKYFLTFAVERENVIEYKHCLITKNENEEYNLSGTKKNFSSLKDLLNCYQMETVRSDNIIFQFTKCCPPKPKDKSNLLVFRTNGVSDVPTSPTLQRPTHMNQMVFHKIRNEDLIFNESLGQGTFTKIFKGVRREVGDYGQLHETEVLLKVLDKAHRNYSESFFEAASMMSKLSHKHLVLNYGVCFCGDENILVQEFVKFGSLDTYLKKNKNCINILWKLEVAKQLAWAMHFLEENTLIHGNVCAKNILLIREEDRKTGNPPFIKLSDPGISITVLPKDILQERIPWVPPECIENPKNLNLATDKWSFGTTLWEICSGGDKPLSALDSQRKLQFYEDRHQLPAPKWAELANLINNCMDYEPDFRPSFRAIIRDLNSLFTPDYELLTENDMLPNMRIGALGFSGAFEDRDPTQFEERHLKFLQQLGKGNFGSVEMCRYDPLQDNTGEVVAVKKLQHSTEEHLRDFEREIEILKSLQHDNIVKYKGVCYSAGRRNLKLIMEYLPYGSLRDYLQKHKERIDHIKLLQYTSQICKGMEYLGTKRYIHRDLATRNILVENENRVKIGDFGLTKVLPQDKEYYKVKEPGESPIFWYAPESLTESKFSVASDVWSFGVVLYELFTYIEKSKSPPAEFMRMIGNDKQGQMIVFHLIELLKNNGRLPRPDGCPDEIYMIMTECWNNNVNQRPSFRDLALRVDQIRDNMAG

SMILES	JAK2 % Degradation in SET2
COC(=O)N[C@@H]1CC[C@@H](n2c(=O)n(C)c3cnc4[nH]c(-c5ccc(C(=O)N6CCC(CN7CCN(c8ccc9c(c8)C(=O)N(C8CCC(=O)NC8=O)C9=O)CC7)CC6)c(F)c5)c(-c5ccc6c(cnn6C(C)C)c5)c4c32)C1 (stereo partly drawn) [Example 32, methyl ((1R,3R)-3-(7-(4-(4-((4-(2-(2,6-dioxopiperidin-3-yl)-1,3-dioxoisoindolin-5-yl)piperazin-1-yl)methyl)piperidine-1-carbonyl)-3-fluorophenyl)-8-(1-isopropyl-1H-indazol-5-yl)-3-methyl-2-oxo-3,6-dihydroimidazo[4,5-d]pyrrolo[2,3-b]pyridin-1(2H)-yl)cyclopentyl) carbamate]	B** (B: ≥40% to <60% degradation)
COC(=O)N[C@@H]1CC[C@@H](n2c(=O)n(C)c3cnc4[nH]c(-c5ccc(C(=O)N6CCC(CN7CCN(c8ccc9c(c8)C(=O)N(C8CCC(=O)NC8=O)C9=O)CC7)CC6)cc5)c(-c5ccc6c(cnn6C(C)C)c5)c4c32)C1 (stereo partly drawn) [Example 34, methyl ((1R,3R)-3-(7-(4-(4-((4-(2-(2,6-dioxopiperidin-3-yl)-1,3-dioxoisoindolin-5-yl)piperazin-1-yl)methyl)piperidine-1-carbonyl)phenyl)-8-(1-isopropyl-1H-indazol-5-yl)-3-methyl-2-oxo-3,6-dihydroimidazo[4,5-d]pyrrolo[2,3-b]pyridin-1(2H)-yl)cyclopentyl) carbamate]	A** (A: ≥600% degradation)

Same assay, conditions: 10 μM compound, 8 hours treatment, western blot densitometry vs. DMSO vehicle

SMILES	JAK2 % Degradation in SET2
COC(=O)N[C@@H]1CC[C@@H](n2c(=O)n(C)c3cnc4[nH]c(-c5ccc(C(=O)NCCOCCOCC(=O)N[C@H](C(=O)N6C[C@H](O)C[C@H]6C(=O)NCc6ccc(-c7scnc7C)cc6)C(C)(C)C)c(F)c5)c(-c5ccc6c(cnn6C(C)C)c5)c4c32)C1 [Example 14, methyl ((1R,3R)-3-(7-(3-fluoro-4-((2-(2-(2-(((S)-1-((2S,4R)-4-hydroxy-2-((4-(4-methylthiazol-5-yl)benzyl)carbamoyl)pyrrolidin-1-yl)-3,3-dimethyl-1-oxobutan-2-yl)amino)-2-oxoethoxy)ethoxy)ethyl)carbamoyl)phenyl)-8-(1-isopropyl-1H-indazol-5-yl)-3-methyl-2-oxo-3,6-dihydroimidazo[4,5-d]pyrrolo[2,3-b]pyridin-1(2H)-yl)cyclopentyl) carbamate]	C (C: ≥20% to <40% degradation)
COC(=O)N[C@@H]1CC[C@@H](n2c(=O)n(C)c3cnc4[nH]c(-c5ccc(C(=O)NCCOCC(=O)Nc6ccc7c(c6)CN(C6CCC(=O)NC6=O)C7=O)c(F)c5)c(-c5ccc6c(cnn6C(C)C)c5)c4c32)C1 (stereo partly drawn) [Example 17, methyl ((1R,3R)-3-(7-(4-((2-(2-((2-(2,6-dioxopiperidin-3-yl)-1-oxoisoindolin-5-yl)amino)-2-oxoethoxy)ethyl)carbamoyl)-3-fluorophenyl)-8-(1-isopropyl-1H-indazol-5-yl)-3-methyl-2-oxo-3,6-dihydroimidazo[4,5-d]pyrrolo[2,3-b]pyridin-1(2H)-yl)cyclopentyl) carbamate]	E (E<10%)
COC(=O)N[C@@H]1CC[C@@H](n2c(=O)n(C)c3cnc4[nH]c(-c5ccc(C(=O)NCCOCC(=O)Nc6cccc7c6CN(C6CCC(=O)NC6=O)C7=O)c(F)c5)c(-c5ccc6c(cnn6C(C)C)c5)c4c32)C1 (stereo partly drawn) [Example 24, methyl ((1R,3R)-3-(7-(4-((2-(2-((2-(2,6-dioxopiperidin-3-yl)-1-oxoisoindolin-4-yl)amino)-2-oxoethoxy)ethyl)carbamoyl)-3-fluorophenyl)-8-(1-isopropyl-1H-indazol-5-yl)-3-methyl-2-oxo-3,6-dihydroimidazo[4,5-d]pyrrolo[2,3-b]pyridin-1(2H)-yl)cyclopentyl) carbamate]	C (C: ≥20% to <40% degradation)
COC(=O)N[C@@H]1CC[C@@H](n2c(=O)n(C)c3cnc4[nH]c(-c5ccc(C(=O)N(C)CCOCC(=O)Nc6ccc7c(c6)CN(C6CCC(=O)NC6=O)C7=O)c(F)c5)c(-c5ccc6c(cnn6C(C)C)c5)c4c32)C1 (stereo partly drawn) [Example 27, methyl ((1R,3R)-3-(7-(4-((2-(2-((2-(2,6-dioxopiperidin-3-yl)-1-oxoisoindolin-5-yl)amino)-2-oxoethoxy)ethyl)(methyl)carbamoyl)-3-fluorophenyl)-8-(1-isopropyl-1H-indazol-5-yl)-3-methyl-2-oxo-3,6-dihydroimidazo[4,5-d]pyrrolo[2,3-b]pyridin-1(2H)-yl)cyclopentyl) carbamate]	D (D: <20% to ≥10%)
CCNC(=O)[C@H](Cc1ccc(F)cc1)NC(=O)[C@@H]1CCCN1C(=O)[C@@H](NC(=O)[C@H](C)NCCOCCNC(=O)c1ccc(-c2[nH]c3ncc4c(c3c2-c2ccc3c(cnn3C(C)C)c2)n([C@@H]2CC[C@@H](NC(=O)OC)C2)c(=O)n4C)cc1F)C1CCCCC1 [Example 31, methyl ((1R,3R)-3-(7-(4-((2-(2-(((S)-1-(((S)-1-cyclohexyl-2-((S)-2-(((S)-1-(ethylamino)-3-(4-fluorophenyl)-1-oxopropan-2-yl)carbamoyl)pyrrolidin-1-yl)-2-oxoethyl)amino)-1-oxopropan-2-yl)amino)ethoxy)ethyl)carbamoyl)-3-fluorophenyl)-8-(1-isopropyl-1H-indazol-5-yl)-3-methyl-2-oxo-3,6-dihydroimidazo[4,5-d]pyrrolo[2,3-b]pyridin-1(2H)-yl)cyclopentyl) carbamate]	C (C: ≥20% to <40% degradation)

Second part, the compound after the results:

JAK2 % Degradation in SET2	SMILES
A (A: ≥600% degradation)	COC(=O)N[C@@H]1CC[C@@H](n2c(=O)n(C)c3cnc4[nH]c(-c5ccc(C(=O)N6CCC(CN7CCN(c8cccc9c8C(=O)N(C8CCC(=O)NC8=O)C9=O)CC7)CC6)c(F)c5)c(-c5ccc6c(cnn6C(C)C)c5)c4c32)C1 (stereo partly drawn) [Example 1, Methyl((1R,3R)-3-(7-(4-(4-((4-(2-(2,6-dioxopiperidin-3-yl)-1,3-dioxoisoindolin-4-yl)piperazin-1-yl)methyl)piperidine-1-carbonyl)-3-fluorophenyl)-8-(1-isopropyl-1H-indazol-5-yl)-3-methyl-2-oxo-3,6-dihydroimidazo[4,5-d]pyrrolo[2,3-b]pyridin-1(2H)-yl)cyclopentyl)carbamate]
B (B: ≥40% to <60% degradation)	COC(=O)N[C@@H]1CC[C@@H](n2c(=O)n(C)c3cnc4[nH]c(-c5ccc(C(=O)N6CCC(CN7CCN(c8cccc9c8C(=O)N(C8CCC(=O)NC8=O)C9=O)CC7)CC6)c(OC)c5)c(-c5ccc6c(cnn6C(C)C)c5)c4c32)C1 (stereo partly drawn) [Example 28, methyl ((1R,3R)-3-(7-(4-(4-((4-(2-(2,6-dioxopiperidin-3-yl)-1,3-dioxoisoindolin-4-yl)piperazin-1-yl)methyl)piperidine-1-carbonyl)-3-methoxyphenyl)-8-(1-isopropyl-1H-indazol-5-yl)-3-methyl-2-oxo-3,6-dihydroimidazo[4,5-d]pyrrolo[2,3-b]pyridin-1(2H)-yl)cyclopentyl) carbamate]
A (A: ≥600% degradation)	COC(=O)N[C@@H]1CC[C@@H](n2c(=O)n(C)c3cnc4[nH]c(-c5ccc(C(=O)N6CCC(CN7CCN(c8cccc9c8C(=O)N(C8CCC(=O)NC8=O)C9=O)CC7)CC6)cc5)c(-c5ccc6c(cnn6C(C)C)c5)c4c32)C1 (stereo partly drawn) [Example 33, methyl ((1R,3R)-3-(7-(4-(4-((4-(2-(2,6-dioxopiperidin-3-yl)-1,3-dioxoisoindolin-4-yl)piperazin-1-yl)methyl)piperidine-1-carbonyl)phenyl)-8-(1-isopropyl-1H-indazol-5-yl)-3-methyl-2-oxo-3,6-dihydroimidazo[4,5-d]pyrrolo[2,3-b]pyridin-1(2H)-yl)cyclopentyl) carbamate]
